Results from patent publication US20240316014A1, “METHOD FOR TREATING DEMYELINATING CONDITIONS” (ACADEMIA SINICA, priority 2023, published 2024).
Where two headings read alike, the source gives them in different places.

Experiments:
[1] = test system: cuprizone-induced demyelination; settings: cited from earlier work
[2] = test system: human primary fibroblasts (CRL2097); test: Morphology screening for conversion of fibroblasts into oligodendrocyte-like cells; type: cell-based; settings: for morphological changes in fibroblasts (dendritic and dome-shaped): human fibroblasts CRL2097, phase-contrast, vs solvent control (FIG. 1A)
Description: The human normal foreskin skin fibroblast primary cells (CRL-2097) were obtained from the ATCC. CRL-2097 cells were cultured at 37° C. with 5% CO2 in high glucose Dulbecco's Modified Eagle's Medium (HG-DMEM) (Life Technologies) supplemented with 10% fetal bovine serum (FBS) (Hyclone). Cell viability was determined by trypan blue staining. All of the cultures were free of mycoplasma. This study was approved by the Academia Sinica ethics committee (IRB number: AS-IRB-BM-17008, AS-IRB-BM-20038). Cells (1×10^4 per well) were plated on 24-well plates. Cells were cultured in HG-DMEM (Life Technologies) supplemented with 10% fetal bovine serum (FBS) (Hyclone) for 2 days. Then the medium was replaced with DMEM/F12 (Gibco) with 1% N2 supplement, 1% B27 supplement (all from Life Technologies), 20 ng/ml Platelet-Derived Growth Factor AA (PDGF-AA), 20 ng/ml Epidermal Growth Factor (EGF), 20 ng/mL Basic Fibroblast Growth Factor (bFGF), 20 ng/ml Neurotrophin-3 (NT3) (all from Peprotech). Then the cells were treated with 3 mM valproic acid (Tocris) for 2 days, 10 μM Y27632 (LC Laboratories), 10 μM SU9516 (R&D Systems), and 10 μM Forskolin (FSK) (Tocris) for 1 day. The reagent is listed in supplementary Table S1 and Table S2. To find out which chemicals could convert fibroblasts into oligodendrocyte-like cells, we screened chemically-treated cells based on morphological changes that included the formation of a dendritic morphology of neural lineage cells and the dome-shaped morphology of the cell bodies of oligodendrocytes. In a preliminary screen, two chemicals, Y27632 and SU9516, were identified that may be involved in triggering the generation of oligodendrocyte-like cells from human primary fibroblasts (CRL2097). […] To characterize the induced oligodendrocyte-like cells, we performed immunofluorescence staining to analyze the expression of oligodendrocyte-specific markers. […] Next, to optimize the two-chemical cocktail, we performed an additional high-throughput screen using a chemical library of over 1,500 molecules purchased from Selleckchem®. […]

[3] = test system: human primary fibroblasts (CRL2097); test: Immunofluorescence staining of oligodendrocyte-specific markers in chemically treated fibroblasts; type: cell-based; settings: compared to the solvent control group (FIG. 1B)
Description: Cells (1×10^4 per well) were plated on 24-well plates. Cells were cultured in HG-DMEM (Life Technologies) supplemented with 10% fetal bovine serum (FBS) (Hyclone) for 2 days. Then the medium was replaced with DMEM/F12 (Gibco) with 1% N2 supplement, 1% B27 supplement (all from Life Technologies), 20 ng/ml Platelet-Derived Growth Factor AA (PDGF-AA), 20 ng/ml Epidermal Growth Factor (EGF), 20 ng/mL Basic Fibroblast Growth Factor (bFGF), 20 ng/ml Neurotrophin-3 (NT3) (all from Peprotech). Then the cells were treated with 3 mM valproic acid (Tocris) for 2 days, 10 μM Y27632 (LC Laboratories), 10 μM SU9516 (R&D Systems), and 10 μM Forskolin (FSK) (Tocris) for 1 day. The reagent is listed in supplementary Table S1 and Table S2. Cells were fixed with 4% formaldehyde for 15 minutes at room temperature, and washed once with 1×Phosphate Buffered Saline (PBS). Cells were permeabilized with 0.3% Triton X-100 for 5 minutes, washed twice with 1×PBS, and blocked in 2% Bovine Serum Albumin (BSA) in PBS for 30 minutes. […] Fluorescence was analyzed using a fluorescence microscope (Axiovert 200 M, Zeiss).

Structure (SMILES): CNC(=O)c1cc(Oc2ccc3nc(N[C@@H]4CCCC[C@H]4O)sc3c2)ccn1 [BLZ945]
- remyelination ([1]; 5-week cuprizone-induced model, ref [34]): enhances remyelination

Structure (SMILES): CC(C)(C)[C@]1(O)CC2OC(=O)CC23C(=O)OC2OC(=O)[C@H](O)C231 (some centres unmarked) [Bilobalide]
- remyelination ([1]; cuprizone-induced 6-week model, ref [36]): promote remyelination

Structure (SMILES): COc1ccc2c(c1)c(CC(=O)O)c(C)n2C(=O)c1ccc(Cl)cc1 [Indomethacin]
- remyelination ([1]; 10-week cuprizone-induced demyelination model, ref [33]): promote remyelination

Structure (SMILES): COc1ccc2c(c1)/C(=C/c1cnc[nH]1)C(=O)N2 [SU9516, (Z)-3-((1H-imidazol-5-yl)methylene)-5-methoxyindolin-2-one]
- morphological changes in fibroblasts (dendritic and dome-shaped) [2]: induced morphological changes
- expression of oligodendrocyte-specific marker 4 (O4) by immunofluorescence [3]: higher 04 expression

Structure (SMILES): CCCC(CCC)C(=O)O [VPA, valproic acid]
- conversion efficiency, VPA pretreatment vs co-treatment with YSF ([2]; VPA 2 days then YSF 1 day, or VPA co-treated with YSF 1 day (FIG. 1D)): only pretreatment could improve the conversion efficiency

Structure (SMILES): C[C@@H](N)[C@H]1CC[C@H](C(=O)Nc2ccncc2)CC1 [Y27632, Trans-4-[(1R)-1-Aminoethyl]-N-(4-pyridinyl)cyclohexanecarboxamide]
- morphological changes in fibroblasts (dendritic and dome-shaped) [2]: induced morphological changes
- expression of oligodendrocyte-specific marker 4 (O4) by immunofluorescence [3]: higher 04 expression
